Measured values taken from patent US20240352046A1, “ECTONUCLEOTIDE PYROPHOSPHATASE-PHOSPHODIESTERASE-1 (ENPP1) INHIBITORS AND USES THEREOF” (1cBio, Inc., priority 2020, published 2024).
Read-outs that look alike come from different tables or passages of the source.

How the values were obtained:
[1] = biological target: ENPP-1 (Ectonucleotide Pyrophosphatase/Phosphodiesterase 1) (Homo sapiens (Human), UniProt P22413); assay: ENPP1 inhibition assay (AMP Glo, cGAMP substrate); type: biochemical
[2] = test system: IP-10 release in differentiated THP-1 cells; assay: IP-10 cytokine release assay in THP-1 cell lines; type: cell-based, Human; settings: for EC50: Homo sapiens
Protocol: Percent release of Interferon gamma-induced protein 10 (IP-10) was determined in acute monocytic leukemia (THP-1; ATCC® TIB-202™) cell line. THP-1 cells (0.2×10^6 cells/well) were differentiated using phorbol 12-myristate 13-acetate (PMA, 10 nM (final concentration); Cat #P8139, Sigma) and incubated for 24 h at 37° C., 5% CO2 in an incubator (cell culture conditions) prior to treating with serial dilutions of compounds (3 fold, 6 point dose response starting at 10 μM). After treatment with the compounds cells were further incubated for 2 h under cell culture conditions and then exposed to 2′,3′-cGAMP (c-GAMP, 1 μM (final concentration); Cat #SML 1229, Sigma). Differentiated THP-1 cells were further cultured for 24 h after which the supernatant was harvested, and ELISA was performed as per the manufacturer's protocol (BD optEIA Human IP-10 ELISA Set; Cat #550926 & 550534, BD Biosciences). Plates were read in Biotek plate reader by measuring absorbance at 450 nm.
The release of absolute IP-10 in differentiated THP-1 by compounds in the presence of cGAMP was quantified with reference to standard after subtracting blank (negative) reading from the test readings. The absolute release of IP-10 in the presence of cGAMP (1 μM) is given in the bar-graph (FIG.-1) and in the table-B2a.
The release of IP-10 in differentiated THP-1 by compounds over cGAMP induced release at four different concentrations of cGAMP (1, 5, 10 & 30 μM) was quantified with reference to standard by normalizing the blank (negative) subtracted test readings from average of cGAMP activated cells at that particular concentration. The EC50's was calculated by fitting the curve to the “four-parameter variable slope logistic model” using Prism Graph Pad.

[3] = test system: IFN-β release in differentiated THP-1 cells; assay: IFN-β cytokine release assay in THP-1; type: cell-based; settings: Homo sapiens, read-out: EC50 (μM) @ 1 μM of cGAMP; IFN-β release over cGAMP induced release, THP-1, 1 μM cGAMP
Protocol: Percent release of Interferon Beta (IFN-03) was determined in acute monocytic leukemia (THP-1; ATCC® TIB-202™) cell line. THP-1 cells (0.3×10^6 cells/well) were differentiated using phorbol 12-myristate 13-acetate (PMA, 50 ng/mL; Cat #P8139, Sigma) and incubated for 24 h at 37° C., 5% CO2 in an incubator (cell culture conditions) prior to treating with serial dilutions of compounds (3 fold, 5 point dose response starting at […]). After treatment with the compounds cells were further incubated for 2 h under cell culture conditions and then exposed to 2′,3′-cGAMP (c-GAMP, 1 μM; Cat #SML 1229, Sigma). Differentiated THP-1 cells were further cultured for 6 h after which the supernatant was harvested, and ELISA was performed as per the manufacturer's protocol (Human IFN-beta Quantikine ELISA Kit; Cat #DIFNB0, R&D systems). Plates were read in Biotek plate reader by measuring absorbance at 450 nm.

[4] = cGAMP 20 μM substrate, ENPP1 1 nM
[5] = read-out: EC50 (μM)@ 1 μM of cGAMP, IP-10 release over cGAMP induced release, THP-1, 1 μM cGAMP
[6] = THP-1, read-out: EC50 (μM)@ 1 μM of cGAMP

Sequence of ENPP-1 (Ectonucleotide Pyrophosphatase/Phosphodiesterase 1) (P22413 whole entry): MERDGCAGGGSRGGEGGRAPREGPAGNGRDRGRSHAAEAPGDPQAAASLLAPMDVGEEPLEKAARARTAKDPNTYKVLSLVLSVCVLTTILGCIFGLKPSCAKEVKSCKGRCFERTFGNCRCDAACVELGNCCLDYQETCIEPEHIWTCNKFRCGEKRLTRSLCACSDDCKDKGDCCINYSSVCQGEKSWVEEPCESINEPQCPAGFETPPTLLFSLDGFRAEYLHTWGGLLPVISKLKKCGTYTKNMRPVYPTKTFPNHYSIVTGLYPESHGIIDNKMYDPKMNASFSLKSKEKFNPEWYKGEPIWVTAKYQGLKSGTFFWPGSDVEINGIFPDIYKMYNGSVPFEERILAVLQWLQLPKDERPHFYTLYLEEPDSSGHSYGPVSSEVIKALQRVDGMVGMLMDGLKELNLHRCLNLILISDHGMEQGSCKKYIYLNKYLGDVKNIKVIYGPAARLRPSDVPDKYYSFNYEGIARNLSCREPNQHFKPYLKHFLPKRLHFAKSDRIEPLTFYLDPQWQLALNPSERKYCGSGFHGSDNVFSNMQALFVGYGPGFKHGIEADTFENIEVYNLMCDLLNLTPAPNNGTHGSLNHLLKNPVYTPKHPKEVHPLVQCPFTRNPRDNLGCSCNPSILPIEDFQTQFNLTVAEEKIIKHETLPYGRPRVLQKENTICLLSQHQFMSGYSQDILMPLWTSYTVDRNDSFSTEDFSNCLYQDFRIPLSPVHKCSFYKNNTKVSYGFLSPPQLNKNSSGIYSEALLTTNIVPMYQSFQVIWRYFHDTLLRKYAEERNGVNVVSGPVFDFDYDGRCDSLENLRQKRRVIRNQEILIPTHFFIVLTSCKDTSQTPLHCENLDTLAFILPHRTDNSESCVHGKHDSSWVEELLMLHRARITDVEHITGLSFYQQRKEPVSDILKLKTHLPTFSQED

Compound	IC50 [1, 4]	EC50 [2, 5]	EC50 [3]	further results
COc1ccc2c(N3CC4(CC(NS(N)(=O)=O)C4)C3)ncnc2c1 [Compound 1.26, 4-(6-sulfamoylamino-2-azaspiro[3.3]heptan-2-yl)-7-methoxyquinazoline]	0.006 µM	< 0.12 µM	–	–
COc1cc2nc(-c3ccncc3)nc(N3CC(CCNS(N)(=O)=O)C3)c2cc1OC [Compound 1.35, 4-(3-(2-sulfamoylaminoethyl)azetidine-1-yl)-6,7-dimethoxy-2-(pyridin-4-yl)quinazoline]	0.099 µM	> 30 µM	–	–
COc1cc2ncnc(N3CC(CCS(N)(=O)=O)C3)c2cc1OC [Compound 1.52, 2-(1-(6,7-dimethoxyquinazolin-4-yl)azetidin-3-yl)ethanesulfonamide]	0.043 µM	> 18.6 µM	–	–
CCOc1cccc2c(N3CC(CCNS(N)(=O)=O)C3)ncnc12 [Compound 1.19, 4-(3-(2-sulfamoylaminoethyl)azetidine-1-yl)-8-ethoxyquinazoline]	0.084 µM	< 0.12 µM	–	–
COc1cc2ncnc(N3CC4(CC(N(C5CC5)S(N)(=O)=O)C4)C3)c2cc1OC [Compound 1.48, N-[2-(6,7-di-methoxyquinazoline-4-yl)-2-azaspiro[3.3]hept-6-yl]-N-cyclopropylsulfuric diamide]	0.144 µM	> 30 µM	–	–
COc1cc2ncnc(N3CC(CC(=O)NO)C3)c2cc1OC [Compound 1.28, 2-(1-(6,7-dimethoxyquinazolin-4-yl)azetidin-3-yl)-N-hydroxyacetamide]	0.026 µM	9.56 µM	> 30 µM	–
COc1cc2ncnc(N3CC(CCC(=O)NO)C3)c2cc1OC [Compound 1.51, 3-(1-(6,7-dimethoxyquinazolin-4-yl)azetidin-3-yl)-N-hydroxypropanamide]	0.015 µM	> 30 µM	–	–
COc1cc2nc(-c3ccccc3)nc(N3CC(CCNS(N)(=O)=O)C3)c2cc1OC [Compound 1.21, 4-(3-(2-sulfamoylaminoethyl)azetidine-1-yl)-6,7-dimethoxy-2-phenylquinazoline]	0.092 µM	1.88 µM	> 30 µM	–
COc1cc(OC)c2ncnc(N3CC(CCNS(N)(=O)=O)C3)c2c1 [Compound 1.50, 4-(3-(2-sulfamoylaminoethyl)azetidine-1-yl)-6,8-di-methoxyquinazoline]	1.48 µM	> 30 µM	–	–
COc1cc2nncc(N3CC(CCNS(N)(=O)=O)C3)c2cc1OC [Compound 1.27, 4-(3-(2-sulfamoylaminoethyl)azetidine-1-yl)-6,7-dimethoxycinnoline]	0.043 µM	< 0.1 µM	–	–
COc1cc2ncnc(N3CC4(CC(C(=O)NO)C4)C3)c2cc1OC [Compound 1.63, 2-(6,7-dimethoxyquinazolin-4-yl)-N-hydroxy-2-azaspiro[3.3]heptane-6-carboxamide]	–	< 0.12 µM	–	–
Cc1nc(N2CC(CCNS(N)(=O)=O)C2)c2c(C)ccn2n1 [Compound 1.71, 4-(3-(2-sulfamoylaminoethyl)azetidine-1-yl)-2,5-di-methylpyrrolo[1,2-f][1,2,4]triazine]	> 3 µM	–	> 30 µM	–
COc1cc2ncnc(N3CC(CCNS(N)(=O)=O)C3)c2cc1F [Compound 1.66, 4-(3-(2-sulfamoylaminoethyl)azetidine-1-yl)-6-fluoro-7-methoxy quinazoline]	0.006 µM	< 0.12 µM	–	–
COc1cc2ncnc(N3CC(C(C)CNS(N)(=O)=O)C3)c2cc1OC (centres unmarked) [Compound 1.70, 4-3-(3-sulfamoylaminopropan-2-yl)azetidin-1-yl-6,7-dimethoxyquinazoline]	0.024 µM	0.304 µM	2.82 µM	–
COc1cc2nc(C)nc(N3CC(CCNS(N)(=O)=O)C3)c2cc1OC [Compound 1.17, 4-(3-(2-sulfamoylaminoethyl)azetidine-1-yl)-6,7-dimethoxy-2-methylquinazoline]	–	–	–	IC50 [1]: 0.057 µM; EC50 [2, 6]: 0.129 µM
COc1cc2ncnc(N3CC(CCB(O)O)C3)c2cc1OC [Compound 1.30, 2-(1-(6,7-dimethoxyquinazolin-4-yl)azetidin-3-yl)ethylboronic acid]	0.019 µM	< 0.12 µM	> 30 µM	–
Nc1nc2c(ncn2[C@@H]2O[C@@H]3COP(=O)(O)O[C@H]4[C@@H](O)[C@H](n5cnc6c(N)ncnc65)O[C@@H]4COP(=O)(O)O[C@@H]2[C@@H]3O)c(=O)[nH]1 [CGAMP, 2′,3′-cGAMP, reference compound]	–	–	–	Percent release IP-10 (Absolute) ([2]; cGAMP (1 μM) alone, differentiated THP-1): 5.6%
COc1cc2ncnc(N3CC(CCNS(C)(=O)=O)C3)c2cc1OC [Compound 1.6, N-(2-[1-(6,7-dimethoxyquinazolin-4-yl)azetidin-3-yl]ethyl)methanesulfonamide]	0.09 µM	7.78 µM	> 30 µM	–
COc1cc2ncnc(N3CC(CCCS(N)(=O)=O)C3)c2cc1OC [Compound 1.39, 3-(1-(6,7-dimethoxyquinazolin-4-yl)azetidin-3-yl)propane-1-sulfonamide]	–	3.26 µM	> 30 µM	–
Cc1ccn2ncnc(N3CC(CCNS(N)(=O)=O)C3)c12 [Compound 1.20, 4-(3-(2-sulfamoylaminoethyl)azetidine-1-yl)-5-methylpyrrolo[1,2-f][1,2,4]triazine]	0.07 µM	5.73 µM	> 30 µM	–
COc1cc2ncnc(N3CC(CCN(C4CC4)S(N)(=O)=O)C3)c2cc1OC [Compound 1.23, 4-(3-(2-((sulfamoyl)(cyclopropyl)amino)ethyl)azetidine-1-yl)-6,7-dimethoxyquinazoline]	0.029 µM	7.87 µM	> 30 µM	–
COc1cc2ncnc(N3CC4(CC(N(C)S(N)(=O)=O)C4)C3)c2cc1OC [Compound 1.46, N-[2-(6,7-di-methoxyquinazoline-4-yl)-2-azaspiro[3.3]hept-6-yl]-N-methylsulfuric diamide]	0.019 µM	0.912 µM	–	–
COc1cc2ncnc(N3CC(CCNC(C)=O)C3)c2cc1OC [Compound 1.7, N-(2-[1-(6,7-dimethoxyquinazolin-4-yl)azetidin-3-yl]ethyl)acetamide]	–	–	–	EC50 [2, 6]: > 30 µM
COc1cc2ncnc(N3CC4(CC(NS(C)(=O)=O)C4)C3)c2cc1OC [Compound 1.49, N-(2-(6,7-dimethoxyquinazolin-4-yl)-2-azaspiro[3.3]heptan-6-yl)methanesulfonamide]	> 1.98 µM	> 30 µM	–	–
COc1cc2ncnc(N3CC(CCN(C)S(N)(=O)=O)C3)c2cc1OC [Compound 1.47, 4-(3-(2-sulfamoylmethylaminoethyl)azetidine-1-yl)-6,7-di-methoxyquinazoline]	–	19.9 µM	–	–
COc1cc2ncnc(N3CC(C)(CCNS(N)(=O)=O)C3)c2cc1OC [Compound 1.22, 4-(3-Methyl-3-(2-sulfamoylaminoethyl)azetidine-1-yl)-6,7-dimethoxyquinazoline]	0.009 µM	0.49 µM	–	–
COc1cc2ncnc(N3CC(CCCNS(N)(=O)=O)C3)c2cc1OC [Compound 1.69, 4-3-(3-sulfamoylaminopropyl)azetidin-1-yl-6,7-dimethoxyquinazoline]	–	0.724 µM	–	–
